Patent publication US8981100B2, “Use of novel coumarins as glutathione and thiol labels” (Life Technologies Corporation, priority 2007, dated 2015)
Several values for one entry are separate records, joined by “and”; a condition that tells them apart may be missing. Identical values can stand only once. Counter-ions that a name gives are not always drawn. Blank lines part the entries; values can stand above or below the compound they belong to.

Legend:
U-2 OS cells [1] = assay: effect of BSO treatment on Example 2 staining in U-2 OS cells; format: cell-based, human; settings: BSO 4 mM overnight, Example 2 40 uM, varied staining time, 3.7% formaldehyde fixation, nuclear region
Procedure: (§1) Cells are plated into 96-well microplates and allowed to recover for several hours or overnight. For testing effects of drugs on intracellular thiol/glutathione content, normal growth medium is removed and replaced with normal growth medium containing the test drug. The solution is incubated for several minutes to days. Growth medium is then removed and mixture is rinsed twice with DPBS with glucose/calcium/magnesium (Invitrogen #14287). The compound of Examples 1, 2 or 4 is added in DPBS (Invitrogen #14287), with a concentration up to 100 uM (typically 20 uM). The solution is incubated in a 37 degree C. incubator for 5-30 minutes (typically 30 minutes). Cells can be imaged after dye labeling.
(§2) Aldehyde fixation: The dye solution is removed and formaldehyde 3.7% (Sigma F1635, or higher quality) in DPBS (Invitrogen #14190) is added and incubated at room temperature in a fume hood for 30 minutes. The formaldehyde fixative is then removed and cells are rinsed with DPBS (Invitrogen #14190) twice. Cells are kept in PBS.
(§3) To quantitate the images of cells stained with the Example compounds, one of the image analysis “BioApplcations” of Arrayscan VTI is used. […] Pixel intensity of the dye in cells are measured in regions (Nucleus, and/or “CytoRing”) defined by the cell identification method based on the nuclear counter stain. […]

U-2 OS cells [2] = assay: cellular staining pattern in U-2 OS cells; format: cell-based, human
Procedure: as §1, §2
(§4) The material is imaged with a fluorescence microscope with filter set for Hoechst 33342 (e.g. Arrayscan VTI (Thermo Fisher Scientific/Cellomics) to acquire the images automatically).

[3] = absorption and emission maxima of the dyes; format: physicochemical
U-2 OS cells [4] = assay: staining intensity of dyes in fixed U-2 OS cells, measured at the nuclear region; format: cell-based, human; settings: dye concentration 40 uM, 30 min staining, 3.7% formaldehyde fixation
Procedure: as §1
Aldehyde fixation: The dye solution is removed and formaldehyde 3.7% (Sigma F1635, or higher quality) in DPBS (Invitrogen #14190) is added and incubated at room temperature in a fume hood for 30 minutes. […]
as §4, §3

U-2 OS cells [5] = assay: effect of quinone toxicants on Example 2 staining in U-2 OS cells; format: cell-based, human; settings: toxicant 2 hours, high concentration 33.3 uM in steps of 1/3, Example 2 30 min, formaldehyde fixation, nuclear region
Procedure: as §1, §2
To quantitate the images of cells stained with the Example compounds, one of the image analysis “BioApplcations” of Arrayscan VTI is used. The basic principle of the software is described as follows: Individual cells in an image are identified using the intensity profile of nuclear stain (e.g. TO-PRO-3). The regions derived from the identified nuclear region in individual cells is obtained (“CytoRing”). Pixel intensity of the dye in cells are measured in regions (Nucleus, and/or “CytoRing”) defined by the cell identification method based on the nuclear counter stain. Cell-level data (intensity and other attributes of each cell in all acquired images) are then reported by the computer for further processing and analysis.

[6] = tested on: Clone 9 cells (Rat liver cells); assay: effect of DEM treatment on Clone 9 cells, Example 2 multiplexed with YOYO-1; format: cell-based; settings: DEM 2 hours, at higher concentration of DEM
Procedure: Cells are plated into 96-well microplates and allowed to recover for several hours or overnight. For testing effects of drugs on intracellular thiol/glutathione content, normal growth medium is removed and replaced with normal growth medium containing the test drug. The solution is incubated for several minutes to days. Growth medium is then removed and mixture is rinsed twice with DPBS with glucose/calcium/magnesium (Invitrogen #14287). The compound of Examples 1, 2 or 4 is added in DPBS (Invitrogen #14287), with a concentration up to 100 uM (typically 20 uM). The solution is incubated in a 37 degree C. incubator for 5-30 minutes (typically 30 minutes). Cells can be imaged after dye labeling. Aldehyde fixation: The dye solution is removed and formaldehyde 3.7% (Sigma F1635, or higher quality) in DPBS (Invitrogen #14190) is added and incubated at room temperature in a fume hood for 30 minutes. The formaldehyde fixative is then removed and cells are rinsed with DPBS (Invitrogen #14190) twice. Cells are kept in PBS. To quantitate the images of cells stained with the Example compounds, one of the image analysis “BioApplcations” of Arrayscan VTI is used. […] Pixel intensity of the dye in cells are measured in regions (Nucleus, and/or “CytoRing”) defined by the cell identification method based on the nuclear counter stain. […]

U-2 OS cells [7] = assay: SDS-PAGE of labeled U-2 OS cells (+/- BSO) to identify the intracellular target of the dye; format: cell-based, human; settings: (+/-) BSO 4 mM overnight, Example 2 40 uM for 60 min
Procedure: U-2 OS cells (ATCC HTB-96, human osteosarcoma cells) were plated in 10-cm dishes and incubated overnight in a 37 degree C. cell culture incubator. The cells were then treated with DL-Buthionine-(S,R)-sulfoximine (BSO, 4 mM in growth medium) for overnight (Control=no BSO treatment). The cells are rinsed cells 3 times with 10 mL of DPBS (Invitrogen #14287).
Labeling of cells: Example 2 (40 uM) in DPBS (Invitrogen #14287) was incubated at room temperature for 1 hour. The dye solution was removed and cells rinsed with DPBS (Invitrogen #14287) twice. The cells were scraped off the dish in the presence of DPBS and transferred to a 15 mL conical tube. The cells were pelleted by centrifugation—(5 min. at 5000 rpm, Centrific centrifuge, Fisher Scientific) and resuspended in DPBS, followed by pelleting cells by centrifugation for 5 min at 1000×g. The cells were resuspended in 170 μl DPBS and, to one half, 1 μl Protease Inhibitor (Sigma, P8340) was added, followed by 2 μl 1 M NEM for 30 min and 4 μl 1 M DTT for 30 min.
Processed samples were resolved with SDS-PAGE (NuPAGE 12% Bis-Tris, Invitrogen, NP0342BOX) run in MES buffer (Invitrogen, NP0002). LDS sample buffer (NP0007) and Molecular weight standard (SeeBluePlus2 Prestained Standard LC5925) were obtained from Invitrogen. […]

Compound: CCCCS(=N)(=O)CCC(N)C(=O)O (racemic) [BSO, DL-Buthionine-(S,R)-sulfoximine]
- effect on Example 2 staining intensity (U-2 OS cells [1]): reduction of Example 2 staining

- absorption maximum ([3]; in methanol): 405 nm
- emission maximum ([3]; in methanol): 493 nm
Compound: O=c1cc(CCl)c2cc3c4c(c2o1)CCCN4CCC3 [Example 1, 2,3,6,7-tetrahydro-9-chloromethyl-1H,5H-quinolizino(9,1-gh)coumarin]
- cellular staining pattern (U-2 OS cells [2]): prominent in nuclear area and diffuse stain in the cytoplasm, with low staining in the cell periphery
- staining intensity (brightness) relative to comparator dyes (U-2 OS cells [4]): brighter than CMAC and mBCl

Compound: O=C1C=CC(=O)C=C1 [BQ, 1,4-benzoquione]
- effect on Example 2 staining intensity (U-2 OS cells [5]): decrease of staining at high toxicant concentrations

Compound: O=C1C=CC(=O)c2ccccc21 [NQ, 1,4-naphthoquinone]
- effect on Example 2 staining intensity (U-2 OS cells [5]): decrease of staining at high toxicant concentrations

- absorption maximum ([3]; in water): 408 nm
- emission maximum ([3]; in water): 512 nm
Compound: N[C@H](CCC(=O)N[C@H](CSCc1cc(=O)oc2c3c4c(cc12)CCCN4CCC3)C(=O)NCC(=O)O)C(=O)O [Example 3, glutathione adduct of 2,3,6,7-tetrahydro-9-bromomethyl-1H,5H-quinolizino(9,1-gh)coumarin]

Compound: CC1=CC(=O)c2ccccc2C1=O [MNQ, 2-methyl-1,4-naphthoquinone]
- effect on Example 2 staining intensity (U-2 OS cells [5]): decrease of staining at high toxicant concentrations

Compound: COC(=O)/C=C\C(=O)OC [DEM, Dimethyl maleate]
- effect on Example 2 intensity ([6]; Example 2 40 uM 30 min): decrease of Example 2 signal (left shift)
- effect on YOYO-1 intensity ([6]; YOYO-1 1 uM 30 min): increase of YOYO-1 signal (up shift)

- absorption maximum ([3]; in methanol): 408 nm and 413 nm
- emission maximum ([3]; in methanol): 497 nm and 515 nm
Compound: O=c1cc(CBr)c2cc3c4c(c2o1)CCCN4CCC3 [Example 2, 2,3,6,7-tetrahydro-9-bromomethyl-1H,5H-quinolizino(9,1-gh)coumarin]
- cellular staining pattern (U-2 OS cells [2]): prominent in nuclear area and diffuse stain in the cytoplasm, with low staining in the cell periphery
- major intracellular target (U-2 OS cells [7]): Glutathione (GSH)
- staining intensity (brightness) relative to comparator dyes (U-2 OS cells [4]): brighter than Example 1
